# In patent US20260053767A1, “Hepatoprotective Compositions And Methods” (Jemyll, Ltd., priority 2022, published 2026):
# Test system: rat primary HSCs
# Assay: HSCs activation by flow cytometry (α-SMA and collagen type I protein expression)
# Type: cell-based
# Settings: 3 days CM from palmitate-treated hepatocytes, then 1% (w/vol) for 24 hours, without compound 25.15%
# Protocol: A 10% (w/v) FFA-free BSA (Sigma) solution was prepared in ddH2O and maintained at 55° C. in a water bath. 10 mM FFA/1% BSA solution was obtained by complexing the appropriate amount of palmitate stock solution to 10% BSA at 55° C. for another 30 min. The above solution was then cooled to 25° C., filter sterilized and stored at −20° C. until use. Primary hepatocytes were grown in DMEM supplemented with palmitate (0.4 mM). After 24 h. CM was clarified by centrifugation at 6000 g to remove cell debris, sterile filtered with a 0.45 μm pore size membrane filter and stored in aliquots at −20° C. until use.
# Hepatic Stellate cells: Primary hepatic stellate cells were isolated from Wistar rats as described previously (7). In brief, the rats were surgically opened under anesthesia, and the livers were perfused through the IVC with 0.5 mM EGTA, after which the portal vein was cut and the upper IVC was clamped. […] HSCs activation was assessed by flow cytometry by evaluating alpha-smooth muscle Actin (α-SMA) and Collagen type I alpha 1 (COLIA1) protein expression. α-SMA and COLIA1 antibodies were obtained from Thermo Fisher scientific (Waltham, MA). Flow cytometric analysis was conducted with CytoFlex (Beckman Coulter, Brea, CA) and data analyzed with Kaluza software (Beckman Coulter, Brea, CA). […]
smiles,measurement,value
"O=C(O)CCCCCCCCCCC(=O)O [DDDA, dodecanedioic acid]",expression of COLA1A and α-SMA (flow cytometry),9.18%
